Data taken from US5340818A, “Methods and compositions for inhibiting tumor cell growth” (priority 1993, dated 1994).
Where “and” joins values, the source holds several entries; their conditions need not be identical. Equal values may be shown once. Entries after “also recorded” stand apart in the source; their conditions may differ. Read-outs that look alike come from different tables or passages of the source.

Assays:
tumors = settings: literature, cited from earlier work
S91 melanoma = settings: ip, 36 × 1 × 9 mg/kg/day; cited from earlier work
HL-60 cells = assay: HL-60 cell growth inhibition, 72 h; format: cell-based, human; settings: HL-60, 72 h; for IC50: read-out: Cell Growth Inhibition, IC50
Method in brief: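 HL-60 cells seeded at 1.5×10^5/ml in RPMI 1640, exposed 72 h at 37° C, 5% CO2 to compound at 0.0025-0.05 mg/ml in 0.1% DMSO. Viable cells counted by trypan blue exclusion; IC50 from median-effect analysis over three to five dose levels versus DMSO control.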

[1] = test system: protein synthesis in HL-60 cells; assay: Inhibition of [2,3,4,5-3H]L-Leu incorporation into protein of HL-60 cells; format: cell-based, human; settings: Homo sapiens
Method in brief: (§1)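 HL-60 cells (2.2×10^6/ml) preincubated 15 min with compound (0.03 mg/ml, 0.3% DMSO), then 30 min with [5-3H]Cyd (5 μCi, 0.23 nmol/ml) for RNA or [2,3,4,5-3H]L-Leu (0.5 μCi, 0.004 nmol/ml) for protein. Inhibition relative to DMSO-only incorporation.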

B-16 Melanoma = assay: B-16 melanoma in mice; format: in vivo, mouse; settings: day 1 QDX4
Source text: Chemotherapeutic Effects of Acronycine and TSA-35 against Solid

[2] = test system: DNA synthesis in HL-60 cells; assay: Inhibition of [3H-methyl]dThd incorporation into DNA of HL-60 cells; format: cell-based, human; settings: Homo sapiens, HL-60, at 0.03 mg/mL; read-out: % Inhibition of Precursor Incorporation, DNA
Method in brief: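 HL-60 cells, 2.2×10^6 /ml, preincubated 15 min with compound in 0.3% DMSO, then 30 min with [3H-methyl]dThd (1 μCi, 0.15 nmole/ml). DNA incorporation compared with DMSO-only control.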

Carcinoma EO771 = Carcinoma EO771 (E07713 mammary adenocarcinoma) survival time evaluation in C57BL/6 mice; format: in vivo
Source text: Tumor-Carcinoma EO771 3 × 10^5 cells (ip) in C57BL/6, FEM,
(§2) Diluent-CMC + 1 drop Tween 80
(§3) Schedule: Day 1, QDX4 (ip)

[3] = test system: RNA synthesis in HL-60 cells; assay: Inhibition of [5-3H]Cyd incorporation into RNA of HL-60 cells; format: cell-based, human; settings: Homo sapiens, HL-60, 0.5 h
Method in brief: as §1

Lewis lung carcinoma = Lewis lung carcinoma survival time evaluation in C57BL/6 mice; format: in vivo, mouse; set-up: Survival Time, individual mice / AST (average survival time): unit not given here; settings: for AST (average survival time) / Day #7 AWC (average weight change) / N/T (29 day survivors/total mice) / Survival Time, individual mice / % ILS (increase in lifespan): day 1, QDX4 ip; for % ILS (increase in lifespan): 25% or greater indicates activity
Source text: Tumor-Lewis Lung C. 3 × 10^5 cells (ip) in C57BL/6, FEM, 19-21
as §2, §3

[4] = Table 8, 50 mg/kg ip, day 1 QDX4
[5] = Table 8, 100 mg/kg ip, day 1 QDX4
[6] = Table 8, 25 mg/kg ip, day 1 QDX4
[7] = Table 8, 150 mg/kg ip, day 1 QDX4

COc1cc2c(c3c1c(=O)c1ccccc1n3C)C=CC(C)(C)O2 [Compound 1, Acronycine]
antitumor activity, in words (tumors): broad spectrum of antitumor activity | antitumor activity, in words (tumors; listed as acronycine): effective against a wide range of neoplasms | Percent activity (S91 melanoma): 100(4) Percent | cell growth inhibition, in words (HL-60 cells): significantly active | inhibition at 30 µg/mL ([1]; HL-60, read-out: % Inhibition of Precursor Incorporation, Protein, at 0.03 mg/mL): 25.4% | % ILS (B-16 Melanoma; 50 mg/kg ip): 24% | Day 7 BWC (body weight change) (B-16 Melanoma; 50 mg/kg ip): -0.6 g | N/T (40 day tumorfree mice/total) (B-16 Melanoma; 50 mg/kg ip): 0/5 | inhibition at 30 µg/mL [2]: ~90% | AST (average survival time) (Carcinoma EO771; 50 mg/kg, day 1, QDX4 ip): 13.4 | Day #7 AWC (average weight change) (Carcinoma EO771; 50 mg/kg, day 1, QDX4 ip): +0.4 g | N/T (22 day survivors/total mice) (Carcinoma EO771; 50 mg/kg, day 1, QDX4 ip): 0/5 | Survival Time, individual mice (Carcinoma EO771; 50 mg/kg, day 1, QDX4 ip): 11 and 14 and 17 | % ILS (increase in lifespan) (Carcinoma EO771; 50 mg/kg, day 1, QDX4 ip, 25% or greater indicates activity): 26% | toxicity induced deaths (Carcinoma EO771; 100 mg/kg daily for 4 days ip): 1 out of 3 | AST (average survival time) (Carcinoma EO771; 100 mg/kg, day 1, QDX4 ip): 11.0 | Day #7 AWC (average weight change) (Carcinoma EO771; 100 mg/kg, day 1, QDX4 ip): +0.5 g | N/T (22 day survivors/total mice) (Carcinoma EO771; 100 mg/kg, day 1, QDX4 ip): 0/3 | % ILS (increase in lifespan) (Carcinoma EO771; 100 mg/kg, day 1, QDX4 ip, 25% or greater indicates activity): 4% | Survival Time, individual mice (Carcinoma EO771; 100 mg/kg, day 1, QDX4 ip, t = died of toxicity): 4t and 10 and 12 | % ILS (Carcinoma EO771; [4]): 26% | Day 7 BWC (body weight change) (Carcinoma EO771; [4]): +0.4 g | N/T (40 day tumorfree mice/total) (Carcinoma EO771; [4]): 0/5 | % ILS (Carcinoma EO771; [5]): 4% | N/T (40 day tumorfree mice/total) (Carcinoma EO771; [5]): 0/3 | death (Carcinoma EO771; [5]): 1/3 | inhibition at 30 µg/mL ([3]; read-out: % Inhibition of Precursor Incorporation, RNA, at 0.03 mg/mL): 21.3% | AST (average survival time) (Lewis lung carcinoma; 25 mg/kg): 14.6 | Day #7 AWC (average weight change) (Lewis lung carcinoma; 25 mg/kg): -0.6 g | N/T (29 day survivors/total mice) (Lewis lung carcinoma; 25 mg/kg): 0/5 | Survival Time, individual mice (Lewis lung carcinoma; 25 mg/kg): 14 and 17 | % ILS (increase in lifespan) (Lewis lung carcinoma; 25 mg/kg): 40% | AST (average survival time) (Lewis lung carcinoma; 50 mg/kg): 14.6 | Day #7 AWC (average weight change) (Lewis lung carcinoma; 50 mg/kg): -0.8 g | N/T (29 day survivors/total mice) (Lewis lung carcinoma; 50 mg/kg): 0/5 | Survival Time, individual mice (Lewis lung carcinoma; 50 mg/kg): 14 and 15 | % ILS (increase in lifespan) (Lewis lung carcinoma; 50 mg/kg): 40% | % ILS (Lewis lung carcinoma; [6]): 40% | Day 7 BWC (body weight change) (Lewis lung carcinoma; [6]): -0.6 g | N/T (40 day tumorfree mice/total) (Lewis lung carcinoma; [6]): 0/5 | % ILS (Lewis lung carcinoma; [4]): 34% | Day 7 BWC (body weight change) (Lewis lung carcinoma; [4]): -0.5 g | N/T (40 day tumorfree mice/total) (Lewis lung carcinoma; [4]): 0/15 | N/T (40 day tumorfree mice/total) (Lewis lung carcinoma; [5]): 0/5 | death (Lewis lung carcinoma; [5]): 5/5

COc1c(OC)c(OC)c2c(c1O)c(=O)c1ccc(O)c(OC)c1n2C [Compound 31, Glyfoline]
Cell Growth Inhibition, IC50 (HL-60 cells): 0.4 mg/L | cell growth inhibition, in words (HL-60 cells): most potent compound in this series; also recorded: significant activity against leukemic cells in vitro | IC50 (HL-60 cells): 1.11 µM | IC50 (HL-60 cells; Homo sapiens): 0.4 µg/mL and 1.1 µM | inhibition at 30 µg/mL ([1]; HL-60, at 0.03 mg/mL, read-out: % Inhibition of Precursor Incorporation, Protein): 90.7% | % ILS (B-16 Melanoma; 25 mg/kg ip): 31% | N/T (40 day tumorfree mice/total) (B-16 Melanoma; 25 mg/kg ip): 0/5 | % ILS (B-16 Melanoma; 50 mg/kg ip): 40% | N/T (40 day tumorfree mice/total) (B-16 Melanoma; 50 mg/kg ip): 0/5 | % ILS (B-16 Melanoma; 150 mg/kg ip): > 56% | N/T (40 day tumorfree mice/total) (B-16 Melanoma; 150 mg/kg ip): 1/5 | inhibition at 30 µg/mL [2]: 93.5% | AST (average survival time) (Carcinoma EO771; 50 mg/kg, day 1, QDX4 ip): 12.4 | N/T (22 day survivors/total mice) (Carcinoma EO771; 50 mg/kg, day 1, QDX4 ip): 0/5 | Survival Time, individual mice (Carcinoma EO771; 50 mg/kg, day 1, QDX4 ip, listed as TSA-35): 10 and 11 and 12 and 14 and 15 | AST (average survival time) (Carcinoma EO771; 100 mg/kg, day 1, QDX4 ip): > 15 | N/T (22 day survivors/total mice) (Carcinoma EO771; 100 mg/kg, day 1, QDX4 ip): 1/3 | Survival Time, individual mice (Carcinoma EO771; 100 mg/kg, day 1, QDX4 ip, t = died of toxicity, listed as TSA-35): 11 and > 22 | % ILS (increase in lifespan) (Carcinoma EO771; ip, 50 mg/kg, 24 h): 17% | % ILS (increase in lifespan) (Carcinoma EO771; ip, 100 mg/kg, 24 h): > 39% | toxicity induced deaths (Carcinoma EO771; mouse, in vivo): no deaths | Day 7 BWC (body weight change) (Carcinoma EO771; mouse, in vivo, ip, 25 mg/kg): +0.6 g | Day 7 BWC (body weight change) (Carcinoma EO771; mouse, in vivo, ip, 50 mg/kg): +0.3 g | inhibition at 30 µg/mL ([3]; at 0.03 mg/mL, read-out: % Inhibition of Precursor Incorporation, RNA): 65.7% | AST (average survival time) (Lewis lung carcinoma; 25 mg/kg): 14.8 | N/T (29 day survivors/total mice) (Lewis lung carcinoma; 25 mg/kg): 0/5 | % ILS (increase in lifespan) (Lewis lung carcinoma; 25 mg/kg): 42% | Survival Time, individual mice (Lewis lung carcinoma; 25 mg/kg, listed as TSA-35): 14 and 18 | AST (average survival time) (Lewis lung carcinoma; 50 mg/kg): > 20 | N/T (29 day survivors/total mice) (Lewis lung carcinoma; 50 mg/kg): 2 out of 5 | % ILS (increase in lifespan) (Lewis lung carcinoma; 50 mg/kg): > 92% | N/T (29 day survivors/total mice) (Lewis lung carcinoma; 50 mg/kg, listed as TSA-35): 2/5 | Survival Time, individual mice (Lewis lung carcinoma; 50 mg/kg, listed as TSA-35): 14 and > 29 | % ILS (Lewis lung carcinoma; [6]): 42% | N/T (40 day tumorfree mice/total) (Lewis lung carcinoma; [6]): 0/5 | % ILS (Lewis lung carcinoma; [4]): > 59% | N/T (40 day tumorfree mice/total) (Lewis lung carcinoma; [4]): 2/15 | % ILS (Lewis lung carcinoma; [5]): > 46% | N/T (40 day tumorfree mice/total) (Lewis lung carcinoma; [5]): 1/10 | % ILS (Lewis lung carcinoma; [7]): > 79% | N/T (40 day tumorfree mice/total) (Lewis lung carcinoma; [7]): 2/8 | toxicity to mice, in words (Lewis lung carcinoma; mouse, in vivo): less toxicity to mice than that of compound 1 | Day 7 BWC (body weight change) (Lewis lung carcinoma; mouse, in vivo, ip, 25 mg/kg): +0.2 g | Day 7 BWC (body weight change) (Lewis lung carcinoma; mouse, in vivo, ip, 50 mg/kg): +0.3 g | Day 7 BWC (body weight change) (Lewis lung carcinoma; mouse, in vivo, ip, 100 mg/kg): +0.5 g | Day 7 BWC (body weight change) (Lewis lung carcinoma; mouse, in vivo, ip, 150 mg/kg): -0.3 g
